Test results reported in US20100298141A1, “SUBSTITUTED PYRIDINE N-OXIDE HERBICIDES” (E. I. DU PONT DE NEMOURS AND COMPANY, priority 2007, published 2010).

Legend:
morningglory = assay: Test A pre-/postemergence greenhouse test; assay type: in vivo, Ipomoea spp.; settings: for Plant response rating, Morningglory: 0 to 100 scale where 0 is no effect and 100 is complete control; for Morningglory plant response rating: 0 to 100 scale
Procedure, shortened: (§1)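 Greenhouse herbicide screen, pre- and postemergence in parallel. Soil: loam plus sand. Formulation: non-phytotoxic solvent mix with surfactant. Postemergence stage: one to two leaves, 2–10 cm height. Evaluation: visual injury, compared with untreated controls, about 10 days after treatment.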

wheat = assay: Test C pre-/postemergence test; assay type: in vivo, Triticum aestivum
Text: (§2) Seeds of plant species selected from blackgrass (Alopecurus myosuroides), downy brome (Bromus tectorum), green foxtail (Setaria viridis), Italian ryegrass (Lolium multiflorum), wheat (Triticum aestivum), wild oat (Avena fatua), catchweed bedstraw (Galium aparine), Russian thistle (Salsola kali), […] (Cynodon dactylon), Surinam grass (Brachiaria decumbens), cocklebur (Xanthium strumarium), corn (Zea mays), crabgrass (Digitaria sanguinalis), woolly cupgrass (Eriochloa villosa), giant foxtail (Setaria faberii), Goosegrass (Eleusin indica), johnsongrass (Sorghum halepense), kochia (Kochia scoparia), lambsquarters (Chenopodium album), morningglory (Ipomoea coccinea), eastern black nightshade (Solanum ptycanthum), yellow nutsedge (Cyperus esculentus), pigweed (Amaranthus retroflexus), common ragweed (Ambrosia elation), soybean (Glycine max), common (oilseed) sunflower (Helianthus annuus), and velvetleaf (Abutilon theophrasti) were planted and treated preemergence with test chemicals formulated in a non-phytotoxic solvent mixture which included a surfactant. At the same time, plants selected from these crop and weed species and also winter barley (Hordeum vulgare), canarygrass (Phalaris minor), and chickweed (Stellaria media) were treated with postemergence applications of some of the test chemicals formulated in the same manner. Plants ranged in height from 2 to 18 cm (1- to 4-leaf stage) for postemergence treatments. […] At time of treatment, test pots were flooded to 3 cm above the soil surface, treated by application of test compounds directly to the paddy water, and then maintained at that water depth for the duration of the test. […] A dash (-) response means no test result.

crabgrass = assay: Test A pre-/postemergence greenhouse test; assay type: in vivo, Digitaria sanguinalis; settings: for Plant response rating, Crabgrass, Large: 0 to 100 scale where 0 is no effect and 100 is complete control; for Crabgrass, Large plant response rating: 0 to 100 scale
Procedure, shortened: as §1

common ragweed = assay: Test C pre-/postemergence test; assay type: in vivo, Ambrosia elation; settings: for Plant response rating (0 to 100), Ragweed / Plant response rating, Ragweed: Postemergence; for Plant response rating, Ragweed: scale 0 to 100, 0 no effect, 100 complete control
Text: as §2

umbrella sedge = assay: Test C flooded paddy test; assay type: in vivo, Cyperus difformis; settings: Flood
Procedure, shortened: (§3)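 Under a constant 3 cm flood, test compounds went directly into the paddy water. Following 13 to 15 days of greenhouse growth, treated species and controls were compared by eye.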

blackgrass = assay: Test C pre-/postemergence test; assay type: in vivo, Alopecurus myosuroides
Text: as §2

wild oat = assay: Test C pre-/postemergence test; assay type: in vivo, Avena fatua
Text: as §2

[1] = system: common (oilseed) sunflower; assay: Test C pre-/postemergence test; assay type: in vivo, Helianthus annuus
Text: as §2

redroot pigweed = assay: Test A pre-/postemergence greenhouse test; assay type: in vivo, Amaranthus retroflexus; settings: for Plant response rating, Pigweed: 0 to 100 scale where 0 is no effect and 100 is complete control; for Pigweed plant response rating: 0 to 100 scale
Procedure, shortened: as §1

Goosegrass = assay: Test C pre-/postemergence test; assay type: in vivo, Eleusin indica
Text: as §2

yellow nutsedge = assay: Test C pre-/postemergence test; assay type: in vivo, Cyperus esculentus
Text: as §2

green foxtail = assay: Test C pre-/postemergence test; assay type: in vivo, Setaria viridis
Text: as §2

duck salad = assay: Test C flooded paddy test; assay type: in vivo, Heteranthera limosa; settings: Flood
Procedure, shortened: as §3

corn = assay: Test C pre-/postemergence test; assay type: in vivo, Zea mays
Text: as §2

Italian ryegrass = assay: Test C pre-/postemergence test; assay type: in vivo, Lolium multiflorum; settings: for Plant response rating (0 to 100), Ryegrass, Italian / Plant response rating, Ryegrass, Italian: Postemergence; for Plant response rating, Ryegrass, Italian: scale 0 to 100, 0 no effect, 100 complete control
Text: as §2

woolly cupgrass = assay: Test C pre-/postemergence test; assay type: in vivo, Eriochloa villosa
Text: as §2

[2] = Postemergence, 500 g ai/ha, 0 is no effect, 100 is complete control
[3] = Preemergence, 125 g ai/ha, 0 no effect, 100 complete control
[4] = 62 g ai/ha, Preemergence, scale 0 to 100
[5] = 125 g ai/ha, preemergence, scale 0 (no effect) to 100 (complete control)
[6] = Postemergence, 125 g ai/ha, scale 0 to 100, 0 no effect, 100 complete control
[7] = Postemergence, 250 g ai/ha, scale 0 to 100, 0 no effect, 100 complete control
[8] = Preemergence, 31 g ai/ha, scale 0 to 100 (0 no effect, 100 complete control)
[9] = preemergence, 250 g ai/ha, scale 0 (no effect) to 100 (complete control)
[10] = 62 g ai/ha, scale 0 to 100 (0 no effect, 100 complete control)
[11] = 250 g ai/ha, scale 0 to 100, 0 no effect, 100 complete control, 13 to 15 days
[12] = Postemergence, 62 g ai/ha, scale 0 to 100, 0 no effect, 100 complete control

CCn1nc(C(F)(F)F)c(CS(=O)(=O)c2cc(C)cc[n+]2[O-])c1OCC(F)(F)F [Compound 64]
95: Sunflower plant response rating [1, 9] | Plant response rating, Goosegrass (Goosegrass; [8]) | Corn plant response rating (corn; [4]) | Corn plant response rating (corn; [5]) | Corn plant response rating (corn; [9])
20: Wheat plant response rating (wheat; [4]) | Plant response rating (0 to 100), Blackgrass (blackgrass; Postemergence, 31 g ai/ha) | Plant response rating, Ducksalad (duck salad; [10])
30: Plant response rating, Morningglory (morningglory; Postemergence, 125 g ai/ha) | Morningglory plant response rating (morningglory; [3]) | Wheat plant response rating (wheat; [5]) | Plant response rating, Oat, Wild (wild oat; [12]) | Sunflower plant response rating [1, 4] | Plant response rating, Ryegrass, Italian (Italian ryegrass; 125 g ai/ha)
55: Plant response rating, Goosegrass (Goosegrass; [7])
100: Wheat plant response rating (wheat; [9]) | Plant response rating, Crabgrass, Large (crabgrass; Preemergence, 500 g ai/ha) | Ragweed plant response rating (common ragweed; [5]) | Ragweed plant response rating (common ragweed; [9]) | Plant response rating, Sedge, Umbrella (umbrella sedge; [11]) | Blackgrass plant response rating (blackgrass; [5]) | Blackgrass plant response rating (blackgrass; [9]) | Plant response rating, Pigweed (redroot pigweed; Preemergence, 500 g ai/ha) | Goosegrass plant response rating (Goosegrass; [4]) | Goosegrass plant response rating (Goosegrass; [5]) | Goosegrass plant response rating (Goosegrass; [9]) | Foxtail, Green plant response rating (green foxtail; [4]) | Foxtail, Green plant response rating (green foxtail; [5]) | Foxtail, Green plant response rating (green foxtail; [9]) | Ryegrass, Italian plant response rating (Italian ryegrass; [9]) | Cupgrass, Woolly plant response rating (woolly cupgrass; [4]) | Cupgrass, Woolly plant response rating (woolly cupgrass; [5]) | Cupgrass, Woolly plant response rating (woolly cupgrass; [9])
70: Plant response rating, Pigweed (redroot pigweed; Postemergence, 125 g ai/ha)
50: Plant response rating (0 to 100), Wheat (wheat; Postemergence, 62 g ai/ha) | Plant response rating, Oat, Wild (wild oat; [6]) | Plant response rating, Oat, Wild (wild oat; [8]) | Pigweed plant response rating (redroot pigweed; [3]) | Plant response rating, Foxtail, Green (green foxtail; [6]) | Ryegrass, Italian plant response rating (Italian ryegrass; [4]) | Plant response rating, Cupgrass, Woolly (woolly cupgrass; [7])
0: Plant response rating (0 to 100), Wheat (wheat; Postemergence, 31 g ai/ha) | Plant response rating, Wheat (wheat; [8]) | Plant response rating (0 to 100), Ragweed (common ragweed; 31 g ai/ha) | Plant response rating (0 to 100), Ragweed (common ragweed; 62 g ai/ha) | Plant response rating, Ragweed (common ragweed; 125 g ai/ha) | Plant response rating, Ragweed (common ragweed; 250 g ai/ha) | Plant response rating (0 to 100), Oat, Wild (wild oat; Postemergence, 31 g ai/ha) | Plant response rating, Sunflower [1, 8] | Plant response rating (0 to 100), Goosegrass (Goosegrass; Postemergence, 31 g ai/ha) | Plant response rating, Goosegrass (Goosegrass; [12]) | Plant response rating, Goosegrass (Goosegrass; [6]) | Plant response rating (0 to 100), Nutsedge, Yellow (yellow nutsedge; Postemergence, 31 g ai/ha) | Plant response rating, Nutsedge, Yellow (yellow nutsedge; [12]) | Plant response rating, Nutsedge, Yellow (yellow nutsedge; [6]) | Plant response rating, Nutsedge, Yellow (yellow nutsedge; [7]) | Plant response rating, Nutsedge, Yellow (yellow nutsedge; [8]) | Plant response rating (0 to 100), Foxtail, Green (green foxtail; Postemergence, 31 g ai/ha) | Plant response rating, Foxtail, Green (green foxtail; [12]) | Plant response rating (0 to 100), Corn (corn; Postemergence, 31 g ai/ha) | Plant response rating, Corn (corn; [12]) | Plant response rating, Corn (corn; [6]) | Plant response rating, Corn (corn; [7]) | Plant response rating, Corn (corn; [8]) | Plant response rating (0 to 100), Ryegrass, Italian (Italian ryegrass; 31 g ai/ha) | Plant response rating (0 to 100), Ryegrass, Italian (Italian ryegrass; 62 g ai/ha) | Plant response rating (0 to 100), Cupgrass, Woolly (woolly cupgrass; Postemergence, 31 g ai/ha) | Plant response rating, Cupgrass, Woolly (woolly cupgrass; [12]) | Plant response rating, Cupgrass, Woolly (woolly cupgrass; [6])
75: Plant response rating, Foxtail, Green (green foxtail; [8]) | Plant response rating, Ducksalad (duck salad; [11])
60: Morningglory plant response rating (morningglory; [2]) | Plant response rating, Blackgrass (blackgrass; [12]) | Plant response rating, Blackgrass (blackgrass; [6]) | Plant response rating, Cupgrass, Woolly (woolly cupgrass; [8])
45: Plant response rating, Ryegrass, Italian (Italian ryegrass; 250 g ai/ha)
98: Oat, Wild plant response rating (wild oat; [9]) | Nutsedge, Yellow plant response rating (yellow nutsedge; [4]) | Nutsedge, Yellow plant response rating (yellow nutsedge; [5]) | Nutsedge, Yellow plant response rating (yellow nutsedge; [9])
80: Plant response rating, Morningglory (morningglory; Preemergence, 500 g ai/ha) | Plant response rating, Crabgrass, Large (crabgrass; Postemergence, 125 g ai/ha) | Crabgrass, Large plant response rating (crabgrass; [3]) | Plant response rating, Sedge, Umbrella (umbrella sedge; [10]) | Oat, Wild plant response rating (wild oat; [4]) | Sunflower plant response rating [1, 5] | Pigweed plant response rating (redroot pigweed; [2]) | Plant response rating, Foxtail, Green (green foxtail; [7])
90: Crabgrass, Large plant response rating (crabgrass; [2]) | Blackgrass plant response rating (blackgrass; [4]) | Plant response rating, Blackgrass (blackgrass; [8]) | Oat, Wild plant response rating (wild oat; [5]) | Ryegrass, Italian plant response rating (Italian ryegrass; [5])
85: Ragweed plant response rating (common ragweed; [4]) | Plant response rating, Oat, Wild (wild oat; [7])
65: Plant response rating, Wheat (wheat; [6]) | Plant response rating, Wheat (wheat; [7])
